{
  "source": "patent US20230151431A1",
  "about": "“METHODS AND COMPOSITIONS FOR IDENTIFYING AND TREATING GLUTAMINASE INHIBITOR-SENSITIVE CANCERS” (DANA-FARBER CANCER INSTITUTE, INC., priority 2020, published 2023)",
  "key": {"NCI-H2122 cells": {"tested_on": "NCI-H2122 cells", "test": "Cell viability, NCI-H2122 cells with SLC7A11 knock-out and/or SLC25A45 over-expression", "type": "cell-based, human", "conditions": "for effect of SLC7A11 knock-out and SLC25A45 over-expression on cell viability under treatment: SLC7A11 knock-out or SLC25A45 over-expression vs wild type", "protocol": "(§1) Cell viability was assayed using a modified manufacturer's protocol for CellTiter-Glo® (Promega #G7573). Cells were seeded at a density of 2000 cells per well in a 96 well black, clear bottom plate (Corning #89091-012) in 100 uL total media per well. The following day different concentrations of compounds at various doses were printed in triplicate in a random well format using the Tecan D300e Digital Dispenser. After 72 hours, 60 μL of a 1:3 solution of CellTiterGlo reagent in 1×PBS (Corning #01018002) was added per well and allowed to incubate at RT for 10 mins. Luminescence was measured with an integration time of 0.1 s using Envision Microplates Reader (PERKIN ELMER #2105-0010). Biological replicates were averaged and normalized to vehicle control. Dose curves were generated using Graphpad Prism."}, "[1]": {"tested_on": "SLC7A11 knock-out LU99 cells", "test": "CellTiter-Glo cell viability, SLC7A11 knock-out LU99 cells vs LacZ control", "type": "cell-based, human", "protocol": "as §1"}, "[2]": {"tested_on": "LU99 cells over-expressing SLC25A45", "test": "CellTiter-Glo cell viability, LU99 cells over-expressing SLC25A45", "type": "cell-based", "conditions": "Homo sapiens, Lu-99, SLC25A45 overexpression", "protocol": "as §1"}, "LU99 cells": {"tested_on": "LU99 cells", "test": "CellTiter-Glo cell viability, LU99 wild type cells", "type": "cell-based", "conditions": "Homo sapiens, Lu-99, read-out: IC50 (percent viability)", "protocol": "as §1"}, "500 cancer cell lines": {"tested_on": "500 cancer cell lines", "test": "PRISM multiplex cancer cell line viability screen", "type": "cell-based, human", "conditions": "5,000 small molecules against 500 cancer cell lines", "protocol": "Parental cell lines were obtained from the Cancer Cell Line Encyclopedia (CCLE) project. PRISM cell line barcoding, pooling, and screening was performed as previously described with several improvements to the original method. First, the lentiviral vector was modified to encode the unique barcode identifier at the end of the puromycin resistance gene. This enables barcodes to be detected using a variant of the mRNA capture and Luminex detection method developed for the L1000 gene expression assay. Second, a set of ten inert barcodes were spiked-in to each well of each plate after cell lysis to control for variation in PCR amplification as detailed below.\nLuminex technology produced .Ixb files containing data for each Luminex bead observed during detection. These .Ixb files were processed to compute Median Fluorescence Intensity (MFI) values, calculated as the median of the values obtained for all beads corresponding to a single PRISM barcode. […]\nFor each cell line on each plate, the distribution of MFI values observed for the DMSO-treated negative controls was compared to that of the positive controls using a robust form of the Strictly Standardized Mean Difference (SSMD*)’. Specifically, SSMD* was calculated as: […]\nCell viability was calculated as the ratio of nMFI to the median of the nMFI from the DMSO-treated negative controls for each cell line on each plate. […]"}, "[3]": {"tested_on": "multiple solid tumor and hematopoietic cancer types", "conditions": "monotherapy, phase 1 clinical trials; cited from earlier work"}, "[4]": {"tested_on": "LU99 cells with ectopic expression of FAM3B", "test": "CellTiter-Glo cell viability, LU99 cells with ectopic expression of FAM3B", "type": "cell-based, human", "protocol": "as §1"}},
  "data": [
    {"smiles": "O=C(Cc1cccc(OC(F)(F)F)c1)Nc1ccc(CCCCc2nnc(NC(=O)Cc3ccccn3)[se]2)nn1", "note": "[Glutaminase IN 1]", "values": [
      {"measurement": "effect of SLC7A11 knock-out and SLC25A45 over-expression on cell viability under treatment", "setting": "NCI-H2122 cells", "value": "increase cell viability"},
      {"measurement": "rescue from inhibitor-induced cell killing by knock-out of SLC7A11", "setting": "[1]", "value": "rescued sensitivity"}
    ]},
    {"smiles": "CN(C)c1ccc(C2Nc3ccc4ccccc4c3C3=C2C(=O)CC(C)(C)C3)cc1Br", "note": "(centres unmarked) [compound 968]", "values": [
      {"measurement": "effect of SLC7A11 knock-out and SLC25A45 over-expression on cell viability under treatment", "setting": "NCI-H2122 cells", "value": "no significant rescue of sensitivity"},
      {"measurement": "rescue from inhibitor-induced cell killing by knock-out of SLC7A11", "setting": "[1]", "value": "not rescued"}
    ]},
    {"smiles": "O=C(Cc1cccc(OC(F)(F)F)c1)Nc1ccc(CCCCc2nnc(NC(=O)Cc3ccccn3)s2)nn1", "note": "[Telaglenastat]", "values": [
      {"measurement": "effect of SLC7A11 knock-out and SLC25A45 over-expression on cell viability under treatment", "setting": "NCI-H2122 cells", "value": "increase cell viability"},
      {"measurement": "sensitivity of cells with combined SLC7A11 knock-out and SLC25A45 over-expression", "setting": "NCI-H2122 cells; combination of SLC7A11 knock-out and SLC25A45 over-expression", "value": "almost completely resistant"},
      {"measurement": "IC50", "setting": "[2]", "value": 22, "unit": "nM"},
      {"measurement": "rescue from inhibitor-induced cell killing by knock-out of SLC7A11", "setting": "[1]", "value": "rescued"},
      {"measurement": "IC50", "setting": "LU99 cells", "value": 1.2, "unit": "nM"},
      {"measurement": "cell line killing in PRISM screen", "setting": "500 cancer cell lines", "value": "selectively kill cell lines across a broad range of lineages"},
      {"measurement": "clinical response", "setting": "[3]", "value": "only occasional responses"},
      {"measurement": "IC50", "setting": "[4]; Homo sapiens, Lu-99, ectopic expression of FAM3B", "value": "> 10000", "unit": "nM"}
    ]},
    {"smiles": "O=C(Cc1ccccc1)Nc1nnc(CCSCCc2nnc(NC(=O)Cc3ccccc3)s2)s1", "note": "[BPTES, Bis-2-(5-phenylacetamido-1,3,4-thiadiazol-2-yl)ethyl sulfide]", "values": [
      {"measurement": "effect of SLC7A11 knock-out and SLC25A45 over-expression on cell viability under treatment", "setting": "NCI-H2122 cells", "value": "increase cell viability"},
      {"measurement": "rescue from inhibitor-induced cell killing by knock-out of SLC7A11", "setting": "[1]", "value": "rescued sensitivity"}
    ]},
    {"smiles": "CC(=O)O[C@H]1C(=O)[C@@]2(C)[C@H]([C@H](OC(=O)c3ccccc3)[C@]3(O)C[C@H](OC(=O)[C@H](O)[C@@H](NC(=O)c4ccccc4)c4ccccc4)C(C)=C1C3(C)C)[C@]1(OC(C)=O)CO[C@@H]1C[C@@H]2O", "note": "[Paclitaxel]", "values": [
      {"measurement": "effect of SLC7A11 knock-out and SLC25A45 over-expression on cell viability under treatment", "setting": "NCI-H2122 cells", "value": "no significant rescue of sensitivity"},
      {"measurement": "IC50", "setting": "LU99 cells", "value": 2.2, "unit": "nM"},
      {"measurement": "change in effects on cell death by ectopic FAM3B expression", "setting": "[4]; ectopic FAM3B vs wild type", "value": "no change"}
    ]}
  ]
}
